Data from the supplement of paper PMC11061612.

Experiments:
Experiment in all cases: Bliss excess, mean over the matrix (fraction); higher = more synergy
[1] = test system: BHT-101 (Thyroid Gland Carcinoma)
Summary of the method: (§1)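 Bliss excess equals the observed combination effect minus the expected value EA + EB − EA·EB, where EA and EB are the effects of each agent alone. Combination Emax is the second-highest inhibition within the matrix. Inhibition was scaled from CellTiter-Glo 2.0 luminescence, with 0 set by vehicle wells and 1 by blank wells, after 72 hours of two-drug dosing of cells plated in 1536-well plates.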

[2] = test system: C-33-A (Cervical Carcinoma)
Summary of the method: as §1

[3] = test system: DBTRG-05MG (Glioblastoma)
Summary of the method: as §1

[4] = test system: HT-1080 (Other Solid Carcinomas)
Summary of the method: as §1

[5] = test system: IA-LM (Non-Small Cell Lung Carcinoma)
Summary of the method: as §1

[6] = test system: KALS-1 (Glioblastoma)
Summary of the method: as §1

[7] = test system: KP-4 (Pancreatic Carcinoma)
Summary of the method: as §1

[8] = test system: MDA-MB-415 (Breast Carcinoma)
Summary of the method: as §1

[9] = test system: MONO-MAC-6 (Acute Myeloid Leukemia)
Summary of the method: as §1

[10] = test system: NCI-H1341 (Small Cell Lung Carcinoma)
Summary of the method: as §1

[11] = test system: NCI-H1876 (Small Cell Lung Carcinoma)
Summary of the method: as §1

[12] = test system: NCI-H3118 (Head and Neck Carcinoma)
Summary of the method: as §1

[13] = test system: OVCAR-3 (Ovarian Carcinoma)
Summary of the method: as §1

[14] = test system: PA-TU-8988T (Pancreatic Carcinoma)
Summary of the method: as §1

[15] = test system: PL4 (Pancreatic Carcinoma)
Summary of the method: as §1

[16] = test system: SAT (Head and Neck Carcinoma)
Summary of the method: as §1

[17] = test system: SK-CO-1 (Colorectal Carcinoma)
Summary of the method: as §1

[18] = test system: SNU-423 (Hepatocellular Carcinoma)
Summary of the method: as §1

[19] = test system: T84 (Colorectal Carcinoma)
Summary of the method: as §1

[20] = test system: WM35 (Melanoma)
Summary of the method: as §1

Compound: CC(=O)Nc1cccc(-n2c(=O)n(C3CC3)c(=O)c3c(Nc4ccc(I)cc4F)n(C)c(=O)c(C)c32)c1 [Trametinib] + Cc1nc(-c2cn3c(n2)-c2ccc(-c4cnn(C(C)(C)C(N)=O)c4)cc2OCC3)n(C(C)C)n1 [Taselisib] (first compound max 1 µM, 7x7, partner max 10 µM)
- Bliss excess [1]: 0.115
- Bliss excess [2]: 0.0744
- Bliss excess [3]: 0.0957
- Bliss excess [4]: 0.0288
- Bliss excess [5]: 0.0972
- Bliss excess [6]: 0.0751
- Bliss excess [7]: 0.0745
- Bliss excess [8]: -0.0162
- Bliss excess [9]: 0.244
- Bliss excess [10]: 0.183
- Bliss excess [11]: 0.132
- Bliss excess [12]: 0.13
- Bliss excess [13]: 0.037
- Bliss excess [14]: 0.173
- Bliss excess [15]: 0.0796
- Bliss excess [16]: -0.0373
- Bliss excess [17]: 0.0523
- Bliss excess [18]: 0.0727
- Bliss excess [19]: 0.233
- Bliss excess [20]: 0.124

Compound: CC1(C)CCC(CN2CCN(c3ccc(C(=O)NS(=O)(=O)c4ccc(NCC5CCOCC5)c([N+](=O)[O-])c4)c(Oc4cnc5[nH]ccc5c4)c3)CC2)=C(c2ccc(Cl)cc2)C1 [Venetoclax] + C1CN(CCC1(C(=O)N[C@@H](CCO)C2=CC=C(C=C2)Cl)N)C3=NC=NC4=C3C=CN4 [Capivasertib] (first compound max 1 µM, 7x7, partner max 3 µM)
- Bliss excess [1]: -0.0312
- Bliss excess [2]: -0.0453
- Bliss excess [3]: -0.0522
- Bliss excess [4]: -0.0351
- Bliss excess [5]: -0.057
- Bliss excess [6]: -0.0501
- Bliss excess [7]: -0.0623
- Bliss excess [8]: -0.102
- Bliss excess [9]: -0.0214
- Bliss excess [10]: 0.0321
- Bliss excess [11]: -0.0952
- Bliss excess [12]: -0.0641
- Bliss excess [13]: -0.0288
- Bliss excess [14]: 0.0237
- Bliss excess [15]: -0.0363
- Bliss excess [16]: -0.0422
- Bliss excess [17]: -0.0247
- Bliss excess [18]: -0.0386
- Bliss excess [19]: -0.0518
- Bliss excess [20]: -0.0456

Compound: CC1(C)CCC(CN2CCN(c3ccc(C(=O)NS(=O)(=O)c4ccc(NCC5CCOCC5)c([N+](=O)[O-])c4)c(Oc4cnc5[nH]ccc5c4)c3)CC2)=C(c2ccc(Cl)cc2)C1 [Venetoclax] + C=CCn1c(=O)c2cnc(Nc3ccc(N4CCN(C)CC4)cc3)nc2n1-c1cccc(C(C)(C)O)n1 [AZD1775] (first compound max 1 µM, partner max 1 µM)
- Bliss excess [1]: -0.0626
- Bliss excess [2]: 0.0262
- Bliss excess [3]: -0.0476
- Bliss excess [4]: -0.0359
- Bliss excess [5]: -0.0386
- Bliss excess [6]: 0.0815
- Bliss excess [7]: -0.0385
- Bliss excess [8]: -0.028
- Bliss excess [9]: 0.0336
- Bliss excess [10]: 0.101
- Bliss excess [11]: -0.001
- Bliss excess [12]: -0.0416
- Bliss excess [13]: -0.067
- Bliss excess [14]: -0.0286
- Bliss excess [15]: -0.0751
- Bliss excess [16]: -0.0537
- Bliss excess [17]: -0.04
- Bliss excess [18]: -0.0472
- Bliss excess [19]: -0.0498
- Bliss excess [20]: -0.0447

Compound: CC1(C)CCC(CN2CCN(c3ccc(C(=O)NS(=O)(=O)c4ccc(NCC5CCOCC5)c([N+](=O)[O-])c4)c(Oc4cnc5[nH]ccc5c4)c3)CC2)=C(c2ccc(Cl)cc2)C1 [Venetoclax] + CCN(CCO)CCCOc1ccc2c(Nc3cc(CC(=O)Nc4cccc(F)c4)[nH]n3)ncnc2c1 [AZD2811] (first compound max 1 µM, 7x7, partner max 1 µM)
- Bliss excess [1]: -0.0256
- Bliss excess [2]: -0.0928
- Bliss excess [3]: -0.0171
- Bliss excess [4]: -0.0407
- Bliss excess [5]: -0.053
- Bliss excess [6]: 0.0005
- Bliss excess [7]: -0.0338
- Bliss excess [8]: -0.0081
- Bliss excess [9]: 0.101
- Bliss excess [10]: 0.0606
- Bliss excess [11]: 0.129
- Bliss excess [12]: -0.0097
- Bliss excess [13]: -0.0087
- Bliss excess [14]: -0.0549
- Bliss excess [15]: -0.0704
- Bliss excess [16]: -0.0043
- Bliss excess [17]: 0.0082
- Bliss excess [18]: -0.0381
- Bliss excess [19]: -0.0249
- Bliss excess [20]: -0.0397

Compound: CC1(C)CCC(CN2CCN(c3ccc(C(=O)NS(=O)(=O)c4ccc(NCC5CCOCC5)c([N+](=O)[O-])c4)c(Oc4cnc5[nH]ccc5c4)c3)CC2)=C(c2ccc(Cl)cc2)C1 [Venetoclax] + CN(C)CCCOc1ccc(-c2ccc3ncc4c(c3c2)n(C2CCOCC2)c(=O)n4C)cn1 [AZD0156] (first compound max 1 µM, 7x7, partner max 1 µM)
- Bliss excess [1]: -0.0272
- Bliss excess [2]: -0.002
- Bliss excess [3]: -0.008
- Bliss excess [4]: -0.0434
- Bliss excess [5]: -0.0238
- Bliss excess [6]: -0.0717
- Bliss excess [7]: -0.0344
- Bliss excess [8]: -0.0869
- Bliss excess [9]: 0.0233
- Bliss excess [10]: 0.007
- Bliss excess [11]: 0.0501
- Bliss excess [12]: 0.005
- Bliss excess [13]: -0.0303
- Bliss excess [14]: -0.0102
- Bliss excess [15]: -0.0397
- Bliss excess [16]: -0.015
- Bliss excess [17]: -0.0119
- Bliss excess [18]: -0.0429
- Bliss excess [19]: -0.0452
- Bliss excess [20]: -0.0197

Compound: CC1(C)CCC(CN2CCN(c3ccc(C(=O)NS(=O)(=O)c4ccc(NCC5CCOCC5)c([N+](=O)[O-])c4)c(Oc4cnc5[nH]ccc5c4)c3)CC2)=C(c2ccc(Cl)cc2)C1 [Venetoclax] + COc1cc(Nc2ncc3c(n2)-c2ccc(Cl)cc2C(c2c(F)cccc2OC)=NC3)ccc1C(=O)O [Alisertib] (first compound max 1 µM, 7x7, partner max 10 µM)
- Bliss excess [1]: -0.0636
- Bliss excess [2]: -0.0225
- Bliss excess [3]: -0.0248
- Bliss excess [4]: 0.0087
- Bliss excess [5]: -0.0469
- Bliss excess [6]: -0.0642
- Bliss excess [7]: -0.0542
- Bliss excess [8]: -0.0711
- Bliss excess [9]: 0.164
- Bliss excess [10]: 0.125
- Bliss excess [11]: 0.0228
- Bliss excess [12]: -0.0188
- Bliss excess [13]: -0.0234
- Bliss excess [14]: 0.0042
- Bliss excess [15]: -0.0531
- Bliss excess [16]: -0.0525
- Bliss excess [17]: 0.0901
- Bliss excess [18]: 0.0176
- Bliss excess [19]: 0.0136
- Bliss excess [20]: -0.0338

Compound: CC1(C)CCC(CN2CCN(c3ccc(C(=O)NS(=O)(=O)c4ccc(NCC5CCOCC5)c([N+](=O)[O-])c4)c(Oc4cnc5[nH]ccc5c4)c3)CC2)=C(c2ccc(Cl)cc2)C1 [Venetoclax] + C[C@@H]1COCCN1C2=NC(=NC(=C2)C3(CC3)[S@](=N)(=O)C)C4=C5C=CNC5=NC=C4 [AZD6738] (first compound max 1 µM, 7x7, partner max 10 µM)
- Bliss excess [1]: -0.0888
- Bliss excess [2]: -0.0127
- Bliss excess [3]: 0.0023
- Bliss excess [4]: -0.0253
- Bliss excess [5]: -0.01
- Bliss excess [6]: -0.034
- Bliss excess [7]: -0.0282
- Bliss excess [8]: -0.0584
- Bliss excess [9]: -0.0322
- Bliss excess [10]: 0.0142
- Bliss excess [11]: -0.0358
- Bliss excess [12]: -0.0643
- Bliss excess [13]: -0.0108
- Bliss excess [14]: 0.0107
- Bliss excess [15]: -0.0918
- Bliss excess [16]: -0.0144
- Bliss excess [17]: -0.103
- Bliss excess [18]: -0.0801
- Bliss excess [19]: -0.0134
- Bliss excess [20]: 0.023
